Our source for the IC50 values is BindingDB's records for doi:10.7270/Q2F769WQ (University of Pittsburgh, 2007).

The assay concerns the target T1, Dual specificity protein phosphatase 1 (Homo sapiens, UniProt P28562).
T1 sequence (P28562 whole entry): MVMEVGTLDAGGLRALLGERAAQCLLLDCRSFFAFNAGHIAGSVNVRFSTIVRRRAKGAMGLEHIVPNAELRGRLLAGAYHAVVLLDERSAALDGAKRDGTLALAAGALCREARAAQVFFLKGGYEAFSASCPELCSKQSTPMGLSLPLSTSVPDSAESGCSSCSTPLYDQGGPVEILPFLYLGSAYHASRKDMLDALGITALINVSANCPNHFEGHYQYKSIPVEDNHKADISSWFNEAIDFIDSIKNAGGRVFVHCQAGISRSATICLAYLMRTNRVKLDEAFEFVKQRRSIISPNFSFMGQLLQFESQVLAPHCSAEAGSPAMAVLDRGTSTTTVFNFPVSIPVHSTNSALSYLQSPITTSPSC
The assay can be described thus: MKP-1 phosphatase inhibitor potency, dose response, biochemical, in vitro, confirmation (AID 551). The conditions noted are these: pH 7; 22 °C.

For orientation: IC50 means the point on the concentration scale where inhibition reaches its midpoint. A high value points to lower potency. For `O=C(c1cccn2c(=O)c3ccc(Cl)cc3nc12)N1CCN(Cc2ccc3c(c2)OCO3)CC1` [3-chloro-6-(4-piperonylpiperazine-1-carbonyl)pyrido[2,1-b]quinazolin-11-one], the IC50 was greater than 50 µM.
To `[O-]/[N+](=C/c1ccc(F)cc1)c1ccccc1` [(E)-(4-fluorobenzylidene)(phenyl)azane oxide] belongs greater than 50 µM.
To `Cc1nn(Cc2ccccc2)c(C)c1NC(=O)CSc1nc2sc3c(c2c(=O)n1C)CCC3` [MLS000096728] belongs greater than 50 µM; to `COC(=O)N(c1ccc(OC)cc1)P1(=S)OCCC(C)O1` (centres undefined) [MLS000043492], greater than 50 µM.
To `CCn1nc(-c2ccccc2)nc2c(=O)n(C)c(=O)nc1-2` [1-Ethyl-6-methyl-3-phenyl-1H-pyrimido[5,4-e][1,2,4]triazine-5,7-dione] belongs 0.197 µM; to `CCn1c(=O)cc(SCC(=O)N2CCN(Cc3ccc4c(c3)OCO4)CC2)c2ccccc21` [1-ethyl-4-[[2-keto-2-(4-piperonylpiperazino)ethyl]thio]carbostyril], greater than 50 µM.
The compound `COC(=O)CCCc1nc2ccccc2s1` [4-(1,3-benzothiazol-2-yl)butanoic acid methyl ester] displayed an IC50 greater than 50 µM.
Compound `Cc1ccc(-c2csc(NC(=O)c3ccno3)n2)cc1` [MLS000081820] yielded an IC50 of 39 µM.
To `COc1ccc(C(=O)CSc2nnc(CNC(=O)c3ccc(OC)c(OC)c3)n2C)cc1` [3,4-dimethoxy-N-[(5-{[2-(4-methoxyphenyl)-2-oxoethyl]thio}-4-methyl-4H-1,2,4-triazol-3-yl)methyl]benzamide] belongs greater than 50 µM.
Next, `CCCCCC1CCC(C(=O)O)CC1` (centres undefined) [SMR000019012]: greater than 50 µM; `O=C1CC(c2ccccc2)c2cc(O)ccc2O1` (centres undefined) [6-hydroxy-4-phenyl-3,4-dihydro-2H-1-benzopyran-2-one]: 49.2 µM.
Next, `COCCCn1c(N)c(C(=O)NCCC(C)C)c2nc3ccccc3nc21` [MLS000041744]: 26.2 µM; `CCCSc1nnc(NC(=O)c2sc3nc(-c4cccs4)ccc3c2N)s1` [3-amino-N-(5-propylsulfanyl-1,3,4-thiadiazol-2-yl)-6-thiophen-2-ylthieno[2,3-b]pyridine-2-carboxamide]: 12.4 µM; `CCOC(=O)c1ccc2c(c1)C1C=CCC1C(C(=O)O)N2` (centres undefined) [MLS-0025126.0001]: 15.8 µM.
The compound `O=C1Nc2ccccc2SC(c2ccccc2)C1O` (centres undefined) [3-hydroxy-2-phenyl-2,3-dihydro-1,5-benzothiazepin-4(5H)-one] returned a half-inhibitory concentration (IC50) of 20.1 µM.
To `CCOc1ccc2nc(Nc3nc4c(c(=O)[nH]3)CCC4)nc(C)c2c1` [2-[(6-ethoxy-4-methylquinazolin-2-yl)amino]-1,5,6,7-tetrahydrocyclopenta[d]pyrimidin-4-one] belongs greater than 50 µM; to `O=C1C(=C2C(=O)c3ccccc3C2=O)Nc2ccccc21` [MLS000071738], greater than 50 µM; to `Cc1cc2n(n1)SC(Nc1ccccc1)N2` (centres undefined) [(6-methyl-2,5-dihydropyrazolo[1,5-b][1,2,4]thiadiazol-2-yl)-phenyl-amine], greater than 50 µM.
Next, `O=C(Nc1ccc2nc(-c3ccco3)c(-c3ccco3)nc2c1)N1CCCCCC1`: 12.3 µM; `CCOC(=O)c1ccc(Nc2c3[nH]cccc-3c(=O)n2Cc2ccc(F)cc2)cc1` [ethyl 4-[[6-[(4-fluorophenyl)methyl]-5-oxo-7H-pyrrolo[3,4-b]pyridin-7-yl]amino]benzoate]: greater than 50 µM; `COc1ccc(-n2c(SCC(=O)N3CCCC3)nc3c([nH]c4ccccc43)c2=O)cc1` [SMR000018494]: greater than 50 µM.
Next, `[O-]/[N+](=C\c1ccc(OC(F)F)cc1)c1ccccc1` [1-[4-(difluoromethoxy)phenyl]-N-phenylmethanimine oxide]: greater than 50 µM; `CC(C)(C)N1C(=O)Cc2c1nc(N)c1c(N)nc(N3CCCCC3CO)c(C#N)c21` (centres undefined) [5,6-bis(azanyl)-3-tert-butyl-8-[2-(hydroxymethyl)piperidin-1-yl]-2-oxidanylidene-1H-pyrrolo[2,3-c][2,7]naphthyridine-9-carbonitrile]: greater than 50 µM; `O=C(NC1(O)C(=O)c2ccccc2C1=O)c1ccccc1` [N-(2-hydroxy-1,3-dioxo-2-indenyl)benzamide]: 14.2 µM.
For the compound `CCCCOc1ccccc1P(=O)(O)CP(=O)(c1ccccc1)c1ccccc1` [(2-butoxyphenyl)-(diphenylphosphorylmethyl)phosphinic acid], the IC50 was greater than 50 µM.
To `CCCCCC#CCC#CCC#CCC#CCCCC(=O)O` belongs 6.53 µM; to `COc1ccc(-n2nnnc2SCC(=O)Nc2ccc3c(c2)OCCO3)c(OC)c1` [MLS000071837], greater than 50 µM; to `O=C1C=C(NCc2ccc(Cl)c(Cl)c2)CC1` [3-[(3,4-dichlorobenzyl)amino]cyclopent-2-en-1-one], greater than 50 µM.
For `CCc1ccc(NC(=O)CSc2nc3ccccc3c(=O)n2CCN2CCOCC2)cc1` [MLS000095236], the IC50 was found to be 45.8 µM.
To `Cn1c(=O)oc2cc(S(=O)(=O)NCCC(=O)NC3CCCC3)ccc21` [MLS000093068] belongs greater than 50 µM.
In turn, `Nc1ccc2ncccc2c1N` [SMR000015817] returned an IC50 greater than 50 µM.
Next, `CC(NC(=O)c1ccc2c(c1)OCO2)C1CCCO1` (centres undefined) [MLS000065753]: greater than 50 µM.
To `COC(=O)C1C(C)=NC2=C(C(=O)c3ccccc32)C1c1ccc(-c2ccc(C(=O)O)cc2)o1` (centres undefined) [4-{5-[3-(methoxycarbonyl)-2-methyl-5-oxo-4,5-dihydro-1H-indeno[1,2-b]pyridin-4-yl]-2-furyl}benzoic acid] belongs greater than 50 µM; to `CCOc1ccc2noc3c2c1C(=O)c1ccccc1-3` [MLS000106837], 49.2 µM.
`N#CC(C(=O)CSc1nnc(Cc2cccs2)n1C1CCCCC1)c1nc2ccccc2[nH]1` (centres undefined) [MLS000098387]: the IC50 was greater than 50 µM.
To `Cc1ccc(NC(=O)CSc2nnc(-c3ccc(S(=O)(=O)N4CCCC4)cc3)o2)cc1C` [MLS000071775] belongs greater than 50 µM.
To `CCCCNC(=O)CSc1nnc(-c2ccco2)n1C` [MLS000033335] belongs greater than 50 µM; to `Cc1ccc(Nc2nc(CSc3nnnn3-c3ccccc3)cc(=O)[nH]2)cc1` [2-[(4-methylphenyl)amino]-6-{[(1-phenyl-1H-tetrazol-5-yl)thio]methyl}-4(3H)-pyrimidinone], greater than 50 µM; to `CC(C)Sc1nc2sc3c(c2c2nnc(SCC(=O)NCc4ccco4)n12)CCCC3` [MLS000082957], 10.4 µM.
To `COC(=O)c1ccccc1NC(=O)CN1C(=O)C2CCCN2c2ncc(Cl)cc21` (centres undefined) [MLS000094302] belongs 35.9 µM.
The compound `Cc1ccc(C)n1-c1cccc(C(=O)O)c1` came in with a half-inhibitory concentration (IC50) of 12 µM.
Next, `COc1ccc(OC)c(NC(=O)CSc2nnc(Cc3cccn3C)n2CCc2ccccc2)c1` [MLS000092931]: greater than 50 µM; `O=C(c1ccc(-c2ccccc2)cc1)N1CCN(Cc2ccccn2)CC1` [(4-phenylphenyl)-[4-(2-pyridinylmethyl)-1-piperazinyl]methanone]: greater than 50 µM; `COc1ccc(S(=O)(=O)N2CCC(NC(=O)Nc3ccc(C)cc3)CC2)cc1` [1-[1-(4-Methoxy-benzenesulfonyl)-piperidin-4-yl]-3-p-tolyl-urea]: greater than 50 µM.
To `CCn1nc(-c2cccs2)nc2c(=O)n(C)c(=O)nc1-2` [1-ethyl-6-methyl-3-thiophen-2-yl-pyrimido[5,4-e][1,2,4]triazine-5,7-dione] belongs 0.158 µM; to `COc1ccc2noc3c2c1C(=O)c1ccccc1-3` [MLS000106874], 16.1 µM; to `O=C(Nc1ccccc1)c1ccc2nc(-c3ccco3)c(-c3ccco3)nc2c1` [2,3-di-2-furyl-N-phenyl-6-quinoxalinecarboxamide], 21.6 µM.
Next, `Oc1ncnc2[nH]ncc12`: greater than 50 µM; `COc1ccc(Cn2c(C)nc3c(c2=O)c2nc4ccccc4nc2n3Cc2ccco2)cc1` [MLS000079944]: 17 µM.
`O=C(Nc1cccc(-c2nc3ccccc3[nH]2)c1)c1cccc(NC(=O)c2ccco2)c1` [N-[3-[[3-(1H-benzimidazol-2-yl)phenyl]carbamoyl]phenyl]furan-2-carboxamide]: the IC50 is greater than 50 µM.
Next, `O=C(CSc1nc2n[nH]cc2c(=O)n1-c1ccccc1)N1CCCc2ccccc21`: greater than 50 µM.
Next, `CC1=C(/C=C/C(C)=C/C=C/C(C)=C/C(=O)O)C(C)(C)CCC1` [ALL-TRANS-RETINOIC ACID]: 27.1 µM; `Cn1ncnc2c(=O)n(C)c(=O)nc1-2`: 0.184 µM.
`O=C(c1cccs1)c1no[n+]([O-])c1C(=O)c1cccs1` [(5-oxidanidyl-4-thiophen-2-ylcarbonyl-1,2,5-oxadiazol-5-ium-3-yl)-thiophen-2-yl-methanone] yielded an IC50 of 3.49 µM.
`CCSCCOC(=O)C1=C(C)N=C2CCCC(=O)C2C1c1coc2ccccc2c1=O` (centres undefined) had an IC50 greater than 50 µM.
Next, `CCCCCNC(=O)c1ccc2c(=O)[nH]c3c(C(=O)NCC4CCCO4)sc(=S)n3c2c1` (centres undefined) [5-oxo-N3-(2-oxolanylmethyl)-N8-pentyl-1-sulfanylidene-4H-thiazolo[3,4-a]quinazoline-3,8-dicarboxamide]: 38.4 µM; `Cn1c(=O)c2cc(S(=O)(=O)NCCC(=O)NCCC3=CCCCC3)ccc2n(C)c1=O` [MLS000092640]: greater than 50 µM.
Next, `CC(C)(C)C(=O)c1sc(Nc2ccccc2)nc1N` [1-(4-amino-2-anilino-1,3-thiazol-5-yl)-2,2-dimethyl-1-propanone]: greater than 50 µM; `O=C(c1n[nH]c(=O)c2ccccc12)N1CCN(C2c3ccccc3-c3ccccc32)CC1` [4-[[4-(9H-fluoren-9-yl)-1-piperazinyl]-oxomethyl]-2H-phthalazin-1-one]: greater than 50 µM.
